Results published in the supplement of paper PMC11451515.

System: NOMO1
Assay: cell viability relative to DMSO control; higher = less cytotoxic
Conditions: 48 h
How it was run: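 Viability values are per-plate percentages of DMSO wells, with background from cell-free wells. Library compounds in DMSO were pin-dosed, in an 11-point threefold series from 47 μM to 0.79 nM, onto NOMO1 or SEM (500 cells/well) or P12-Ichikawa (1000 cells/well) leukemia cells in 1536-well plates (5 μl). Those cells had been adapted for at least four passages in each medium, and CellTiter-Glo One luminescence was read after 48 h at 37°C.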

[1] = HPLM + 10% dialyzed FBS, 0.000781 µM
[2] = HPLM + 10% dialyzed FBS, 0.00234 µM
[3] = HPLM + 10% dialyzed FBS, 0.00702 µM
[4] = HPLM + 10% dialyzed FBS, 0.0211 µM
[5] = HPLM + 10% dialyzed FBS, 0.0632 µM
[6] = HPLM + 10% dialyzed FBS, 0.19 µM
[7] = HPLM + 10% dialyzed FBS, 0.569 µM
[8] = HPLM + 10% dialyzed FBS, 1.71 µM
[9] = HPLM + 10% dialyzed FBS, 5.12 µM
[10] = HPLM + 10% dialyzed FBS, 15.4 µM
[11] = HPLM + 10% dialyzed FBS, 46.1 µM
[12] = RPMI 5 mM glucose + 10% FBS, 0.000781 µM
[13] = RPMI 5 mM glucose + 10% FBS, 0.00234 µM
[14] = RPMI 5 mM glucose + 10% FBS, 0.00702 µM
[15] = RPMI 5 mM glucose + 10% FBS, 0.0211 µM
[16] = RPMI 5 mM glucose + 10% FBS, 0.0632 µM
[17] = RPMI 5 mM glucose + 10% FBS, 0.19 µM
[18] = RPMI 5 mM glucose + 10% FBS, 0.569 µM
[19] = RPMI 5 mM glucose + 10% FBS, 1.71 µM
[20] = RPMI 5 mM glucose + 10% FBS, 5.12 µM
[21] = RPMI 5 mM glucose + 10% FBS, 15.4 µM
[22] = RPMI 5 mM glucose + 10% FBS, 46.1 µM
[23] = RPMI 5 mM glucose + 10% dialyzed FBS, 0.000781 µM
[24] = RPMI 5 mM glucose + 10% dialyzed FBS, 0.00234 µM
[25] = RPMI 5 mM glucose + 10% dialyzed FBS, 0.00702 µM
[26] = RPMI 5 mM glucose + 10% dialyzed FBS, 0.0211 µM
[27] = RPMI 5 mM glucose + 10% dialyzed FBS, 0.0632 µM
[28] = RPMI 5 mM glucose + 10% dialyzed FBS, 0.19 µM
[29] = RPMI 5 mM glucose + 10% dialyzed FBS, 0.569 µM
[30] = RPMI 5 mM glucose + 10% dialyzed FBS, 1.71 µM
[31] = RPMI 5 mM glucose + 10% dialyzed FBS, 5.12 µM
[32] = RPMI 5 mM glucose + 10% dialyzed FBS, 15.4 µM
[33] = RPMI 5 mM glucose + 10% dialyzed FBS, 46.1 µM

Compound	cell viability [1]	cell viability [2]	cell viability [3]	cell viability [4]	cell viability [5]	cell viability [6]	cell viability [7]	cell viability [8]	cell viability [9]	cell viability [10]	cell viability [11]	cell viability [12]	cell viability [13]	cell viability [14]	cell viability [15]	cell viability [16]	cell viability [17]	cell viability [18]	cell viability [19]	cell viability [20]	cell viability [21]	cell viability [22]	cell viability [23]	cell viability [24]	cell viability [25]	cell viability [26]	cell viability [27]	cell viability [28]	cell viability [29]	cell viability [30]	cell viability [31]	cell viability [32]	cell viability [33]
O=C(/C=C/c1cccc([S+](=O)([O-])Nc2ccccc2)c1)NO	143%	112%	121%	120%	154%	132%	139%	129%	88%	12.2%	9.85%																						
COc1cc2c(Oc3ccc(NC(=O)C4(C(=O)Nc5ccc(F)cc5)CC4)cc3F)ccnc2cc1OCCCN1CCOCC1	74.7%	83.2%	79.3%	92%	89.5%	83.1%	84.3%	61%	63.4%	28.5%	4.74%	80.8%	86.3%	91.7%	94.6%	85.8%	85.1%	86.8%	72.8%	41%	36.9%	4.62%	81.2%	75.3%	84.8%	93.8%	85.6%	72.1%	80.9%	46.5%	43.3%	29.6%	5.96%
CC(=O)N1CCN(c2ccc(OCc3nn(C)c(C)c3-c3cccc4c(CCCOc5cccc6ccccc56)c(C(=O)O)n(Cc5cccnc5)c34)cc2)CC1	107%	130%	119%	117%	138%	128%	126%	85.2%	32%	23.9%	22.7%	110%	125%	120%	124%	130%	129%	127%	67%	22.8%	19.6%	16%	118%	125%	130%	131%	136%	139%	129%	123%	24.9%	19.5%	21.2%
Oc1ccc(C2CCN(c3ccnc4ccccc34)CC2)cc1O	101%	107%	115%	101%	123%	124%	113%	123%	94.1%	82.9%	55.6%	108%	109%	97.5%	101%	107%	123%	108%	120%	98.9%	95.7%	48.6%	91.9%	99%	97.9%	83.8%	104%	96.4%	103%	109%	111%	98.1%	70.9%
